Earlier results on one compound are cited in US20130183261A1, “METHOD AND COMPOSITION FOR DELIVERING ACTIVE INGREDIENT INTO AIR, AND USE THEREOF” (priority 2010, published 2013).

The conditions of the data set: at 25° C.; neat solvent.

Turning to `CCCOC(C)COC(C)CO` (stereo not shown) [DPnP, dipropylene glycol n-propyl ether], the Viscosity was 11.4 mPa·s.
